Experimental findings from US20030032674A1, “Use of unsaturated fatty acids to treat severe inflammatory diseases” (priority 2001, published 2003) are described below.

In experiment [1] the test system is iNOS expression. The experiment can be described thus: iNOS immunoblot in RAW 264.7 cells. The experiment is classed as cell-based, murine. Particulars: lauric acid 1, 10, 50, 100 μM with BSA, 11 h. As for the experimental part: Cell culture—RAW 264.7 cells (a murine macrophage-like cell line, ATCC TIB-71), 293T cells (a human embryonic kidney cell line, provided by Sam Lee, Beth Israel Hospital. Boston, Mass.), and HT-29 cells (a human colon adenocarcinoma cell line, ATCC HTB-38) were cultured in Dulbecco's modified Eagle's medium (DMEM) containing 10% (v/v) heat-inactivated fetal bovine serum (FBS, Intergen) and 100 units/ml Penicillin and […] Streptomycin (GIBCO-BRL) at 37° C. in a 5% CO2/air environment. Cells (2×10^6) were plated in 60-mm dishes and cultured for an additional 18 hours to allow the number of cells to approximately double. Cells were maintained in serum-poor (0.25% FBS) medium for another 18 hours prior to the treatment with indicated reagents.
Preparation of fatty acids-albumin complexes—All fatty acids were solubilized in ethanol, and then combined with fatty acid-free and low-endotoxin BSA at a molar ratio of 10:1 (fatty acid: albumin) in serum-poor medium (0.25% FBS). […]
After 11 h, cell lysates were analyzed by COX-2, iNOS, IL-1α, or GAPDH immunoblot using a Western blot analysis.
RAW 264.7 cells were pretested with various concentrations (5, 10, 20, and 50 μM) of docosahexaenoic acid (C22:6n-3) for 3 hours, and then stimulated with LPS (100 ng/ml) for 8 hours and analyzed by COX-2, iNOS, IL-1 a or GAPDH immunoblot.

The target of experiment [2] is T1, TLR2 (Homo sapiens, UniProt O60603).
T1 construct: expressed in transfected cells; host or cells: 293T (stated not to express TLR2)
Description: NFκB reporter in TLR2-transfected 293T cells. The class given is cell-based. Particulars: PamCAG 100 ng/ml. An excerpt:
Plasmids and DNA Constructs—All plasmids and constructs were obtained or made as reported in either S. H. Rhee and D. Hwang, “Murine TOLL-like receptor 4 confers lipopolysaccaride responsiveness as determined by activation of NFκB and expression of the inducible cyclooxygenase,” Journal of Biological Chemistry, vol. 275, pp. 34035-34040 (2000); and J. Y. Lee et al., “Saturated fatty acids, but not unsaturated fatty acids, induce the expression of cyclooxygenase-2 mediated through TOLL-like receptor 4,” Journal of Biological Chemistry, vol. 276, pp. 16683-16689 (2001). Briefly, the luciferase reporter plasmids (pGL2) containing the promoter region of the murine COX-2 gene (−3201/+93 or −1017/+93) were provided by David Dewitt (Michigan State University, East Lansing, Mich.). To prepare the wild-type COX-2 promoter fragment, polymerase chain reaction (PCR) was performed with the primers named Kpn-COX2-For and Hind-COX2-Rev using the murine COX-2 (−1017/+93) luciferase reporter plasmid as a template. To prepare the mutant COX-2 promoter fragment containing mutated NFκB site, Kpn-COX2-Fmut and Hind-COX2-Rev were used as primers. […]
Acylation by saturated fatty acids of bacterial lipopeptides is also required for the activation of TLR2. […] After 18 hr, luciferase activities were determined. […]

The structures appear in SMILES notation.

T1 sequence (O60603 21-784, species assumed): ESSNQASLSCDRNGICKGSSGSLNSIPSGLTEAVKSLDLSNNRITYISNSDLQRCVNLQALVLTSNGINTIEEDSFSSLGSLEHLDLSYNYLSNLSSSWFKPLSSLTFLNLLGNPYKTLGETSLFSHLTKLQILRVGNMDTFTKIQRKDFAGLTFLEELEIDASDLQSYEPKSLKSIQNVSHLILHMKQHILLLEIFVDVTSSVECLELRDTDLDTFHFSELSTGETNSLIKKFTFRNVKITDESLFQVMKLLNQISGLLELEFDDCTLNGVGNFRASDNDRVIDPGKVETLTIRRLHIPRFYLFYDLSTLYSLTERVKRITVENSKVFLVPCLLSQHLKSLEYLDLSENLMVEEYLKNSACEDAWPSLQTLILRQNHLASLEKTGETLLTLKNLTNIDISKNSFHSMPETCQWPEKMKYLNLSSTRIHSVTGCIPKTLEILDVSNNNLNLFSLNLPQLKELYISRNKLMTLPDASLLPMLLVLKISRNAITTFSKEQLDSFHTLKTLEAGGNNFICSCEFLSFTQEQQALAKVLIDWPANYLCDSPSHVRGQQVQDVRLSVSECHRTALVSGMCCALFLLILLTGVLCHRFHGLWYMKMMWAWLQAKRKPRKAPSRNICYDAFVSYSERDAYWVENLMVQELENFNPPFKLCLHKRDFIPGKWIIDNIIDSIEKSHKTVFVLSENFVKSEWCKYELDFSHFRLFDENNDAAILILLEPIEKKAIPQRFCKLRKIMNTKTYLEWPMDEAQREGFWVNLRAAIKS

In the case of `CCCCCCCCCCCC(=O)O` [lauric acid], the “iNOS expression induced by fatty acid (immunoblot)” value in experiment [1] was “induced”. For the same compound, the “effect on NFκB activation induced by PamCAG” value in experiment [2] is given as “potentiated”.
